Like-named read-outs stand apart in the source and are kept apart here.
Assays:
HCC1806 = test: Cell viability assay (CellTiter-Glo); assay type: cell-based, Human
PARG = PARG (Homo sapiens, UniProt Q86W56); test: Biochemical assay (PARG, TFMU-ADPr substrate)
[1] = Homo sapiens, HCC1806, 168 h, HCC1806, 7 days, CellTiter-Glo, read-out: IC50 (nM) in cell viability assay
[2] = 4 nM PARG, 66.2 uM TFMU-ADPr, 3 min at room temperature

Sequence of PARG (Q86W56 whole entry): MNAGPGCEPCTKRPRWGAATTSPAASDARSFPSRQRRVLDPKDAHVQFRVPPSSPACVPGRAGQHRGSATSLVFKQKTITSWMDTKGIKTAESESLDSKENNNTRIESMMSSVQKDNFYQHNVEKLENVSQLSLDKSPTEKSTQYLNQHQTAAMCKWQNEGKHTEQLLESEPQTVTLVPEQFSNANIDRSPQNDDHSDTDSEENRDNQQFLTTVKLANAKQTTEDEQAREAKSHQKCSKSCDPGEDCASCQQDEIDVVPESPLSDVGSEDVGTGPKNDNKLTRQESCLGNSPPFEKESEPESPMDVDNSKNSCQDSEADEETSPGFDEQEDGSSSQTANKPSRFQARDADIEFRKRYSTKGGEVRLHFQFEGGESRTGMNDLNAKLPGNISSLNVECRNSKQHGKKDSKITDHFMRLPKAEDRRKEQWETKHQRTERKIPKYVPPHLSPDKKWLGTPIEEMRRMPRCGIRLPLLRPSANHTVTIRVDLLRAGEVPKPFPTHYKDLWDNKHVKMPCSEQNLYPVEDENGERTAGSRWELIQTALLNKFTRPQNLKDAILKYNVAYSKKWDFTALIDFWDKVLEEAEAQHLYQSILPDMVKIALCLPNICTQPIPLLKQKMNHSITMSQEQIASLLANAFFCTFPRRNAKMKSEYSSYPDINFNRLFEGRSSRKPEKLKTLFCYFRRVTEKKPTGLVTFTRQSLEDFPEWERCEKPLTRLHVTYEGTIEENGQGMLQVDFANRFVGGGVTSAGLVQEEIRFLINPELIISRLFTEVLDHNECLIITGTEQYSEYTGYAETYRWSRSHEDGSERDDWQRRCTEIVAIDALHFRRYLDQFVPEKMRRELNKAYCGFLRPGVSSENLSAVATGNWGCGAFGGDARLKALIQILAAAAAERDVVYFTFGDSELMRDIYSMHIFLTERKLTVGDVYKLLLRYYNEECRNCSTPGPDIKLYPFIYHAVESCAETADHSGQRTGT

| IC50 (HCC1806; [1]) [nM] | IC50 (PARG; PARG, TFMU-ADPr substrate) [nM] | SMILES | IC50 (HCC1806; HCC1806, 7 days, CellTiter-Glo, read-out: IC50 (nM) in cell viability assay) [nM] | IC50 (PARG; [2]) [nM] | IC50 (HCC1806; Homo sapiens, HCC1806, 168 h, read-out: IC50 (nM) in cell viability assay, HCC1806, 7 days, CellTiter-Glo) [nM] | IC50 (HCC1806; read-out: IC50 (nM) in cell viability assay, HCC1806, 7 days, CellTiter-Glo) [nM] |
| --- | --- | --- | --- | --- | --- | --- |
| 139 | 2.42 | CC1(NS(=O)(=O)c2cc(N3CCNCC3)c3cnc(-c4nnc(C(F)F)s4)n3c2)CC1 [Example 341, 3-(5-(difluoromethyl)-1,3,4-thiadiazol-2-yl)-N-(1-methylcyclopropyl)-8-(piperazin-1-yl)imidazo[1,5-a]pyridine-6-sulfonamide] | – | – | – | – |
| 63 | 1.71 | CC1(NS(=O)(=O)c2cc(N3CCN4C(=O)COCC4C3)c3cnc(-c4nnc(C(F)(F)F)s4)n3c2)COC1 (centres unmarked) [Example 363, N-(3-methyloxetan-3-yl)-8-(4-oxohexahydropyrazino[2,1-c][1,4]oxazin-8(1H)-yl)-3-(5-(trifluoromethyl)-1,3,4-thiadiazol-2-yl)imidazo[1,5-a]pyridine-6-sulfonamide] | – | – | – | – |
| 267 | 6.31 | C[C@H]1CN(c2cc(S(=O)(=O)NC3(C)COC3)cn3c(-c4nnc(C(F)F)s4)ncc23)C[C@H](C)N1C [Example 400, 3-(5-(difluoromethyl)-1,3,4-thiadiazol-2-yl)-N-(3-methyloxetan-3-yl)-8-((3S,5S)-3,4,5-trimethylpiperazin-1-yl)imidazo[1,5-a]pyridine-6-sulfonamide] | – | – | – | – |
| 1670 | 2.09 | CC(C)C(=O)N1CCN(c2cc(S(=O)(=O)NC3(C#N)CC3)cn3c(-c4nnc(C(F)F)s4)ncc23)C[C@H]1CO [Example 222, (S)-N-(1-cyanocyclopropyl)-3-(5-(difluoromethyl)-1,3,4-thiadiazol-2-yl)-8-(3-(hydroxymethyl)-4-isobutyrylpiperazin-1-yl)imidazo[1,5-a]pyridine-6-sulfonamide] | – | – | – | – |
| 177 | 5.01 | [2H]C([2H])([2H])OCC1CN(c2cc(S(=O)(=O)NC3(C)COC3)cn3c(-c4nnc(C(F)F)s4)nc(Cl)c23)CCN1 (centres unmarked) [Example 391, 1-chloro-3-(5-(difluoromethyl)-1,3,4-thiadiazol-2-yl)-8-(3-((methoxy-d3)methyl)piperazin-1-yl)-N-(3-methyloxetan-3-yl)imidazo[1,5-a]pyridine-6-sulfonamide] | – | – | – | – |
| 7880 | 263 | C[C@@H]1CN(c2cc(S(=O)(=O)NC3CC3)cn3c(-c4nnc(C(F)(F)F)s4)nnc23)CCN1C(=O)C1(C)CC1 [Example 386, (R)—N-cyclopropyl-8-(3-methyl-4-(1-methylcyclopropane-1-carbonyl)piperazin-1-yl)-3-(5-(trifluoromethyl)-1,3,4-thiadiazol-2-yl)-[1,2,4]triazolo[4,3-a]pyridine-6-sulfonamide] | – | – | – | – |
| 95 | 1.01 | COCC1CN(c2cc(S(=O)(=O)NC3(C)COC3)cn3c(-c4nnc(C(F)F)s4)nc(Cl)c23)CCN1 (centres unmarked) [Example 127, 1-chloro-3-(5-(difluoromethyl)-1,3,4-thiadiazol-2-yl)-8-(3-(methoxymethyl)piperazin-1-yl)-N-(3-methyloxetan-3-yl)imidazo[1,5-a]pyridine-6-sulfonamide] | – | – | – | – |
| 699 | 22.9 | CC(C)C(=O)N1CCN(c2cc(S(=O)(=O)NC3(C#N)CC3)cn3c(-c4nnc(C(F)(F)F)s4)ncc23)C[C@H]1C [Example 205, (R)-N-(1-cyanocyclopropyl)-8-(4-isobutyryl-3-methylpiperazin-1-yl)-3-(5-(trifluoromethyl)-1,3,4-thiadiazol-2-yl)imidazo[1,5-a]pyridine-6-sulfonamide] | – | – | – | – |
| 485 | 5.62 | CC1(NS(=O)(=O)c2cc(N3CCN4C(=O)CCC4C3)c3cnc(-c4nnc(C(F)(F)F)s4)n3c2)COC1 (centres unmarked) [Example 186, N-(3-methyloxetan-3-yl)-8-(6-oxohexahydropyrrolo[1,2-a]pyrazin-2(1H)-yl)-3-(5-(trifluoromethyl)-1,3,4-thiadiazol-2-yl)imidazo[1,5-a]pyridine-6-sulfonamide] | – | – | – | – |
| 32 | 0.71 | Cc1nc(-c2nnc(C(F)(F)F)s2)n2cc(S(=O)(=O)NC3(C)CC3)cc(N3CCN(C(=O)[C@H]4CCN4C)CC3)c12 [Example 171, (R)-1-methyl-8-(4-(1-methylazetidine-2-carbonyl)piperazin-1-yl)-N-(1-methylcyclopropyl)-3-(5-(trifluoromethyl)-1,3,4-thiadiazol-2-yl)imidazo[1,5-a]pyridine-6-sulfonamide] | – | – | – | – |
| 517 | 5.62 | C[C@@H]1CN(c2cc(S(=O)(=O)NC3(C)COC3)cn3c(-c4nnc(C(F)F)s4)ncc23)C[C@@H](C)N1 [Example 180, 3-(5-(difluoromethyl)-1,3,4-thiadiazol-2-yl)-8-((3R,5R)-3,5-dimethylpiperazin-1-yl)-N-(3-methyloxetan-3-yl)imidazo[1,5-a]pyridine-6-sulfonamide] | – | – | – | – |
| 800 | 38 | CC(C)C(=O)N1CCN(c2cc(S(=O)(=O)NC3CC3)cn3c(-c4nnc(C(F)(F)F)s4)nnc23)CC1 [Example 387, N-cyclopropyl-8-(4-isobutyrylpiperazin-1-yl)-3-(5-(trifluoromethyl)-1,3,4-thiadiazol-2-yl)-[1,2,4]triazolo[4,3-a]pyridine-6-sulfonamide] | – | – | – | – |
| 130 | 6.91 | CC1(NS(=O)(=O)c2cc(N3CCC(O)CC3)c3cnc(-c4nnc(C(F)F)s4)n3c2)CC1 [Example 305, 3-(5-(difluoromethyl)-1,3,4-thiadiazol-2-yl)-8-(4-hydroxypiperidin-1-yl)-N-(1-methylcyclopropyl)imidazo[1,5-a]pyridine-6-sulfonamide] | – | – | – | – |
| 175 | 2.93 | CC1(NS(=O)(=O)c2cc(N3CCN(C(=O)C4(C)CCN4)CC3)c3cnc(-c4nnc(C(F)(F)F)s4)n3c2)CC1 (centres unmarked) [Example 321, 8-(4-(2-methylazetidine-2-carbonyl)piperazin-1-yl)-N-(1-methylcyclopropyl)-3-(5-(trifluoromethyl)-1,3,4-thiadiazol-2-yl)imidazo[1,5-a]pyridine-6-sulfonamide] | – | – | – | – |
| 4000 | 174 | CN(C)C(=O)C1CCN(c2cc(S(=O)(=O)NC3(C#N)CC3)cn3c(-c4nnc(C(F)(F)F)s4)ncc23)CC1 [Example 214, 1-(6-(N-(1-cyanocyclopropyl)sulfamoyl)-3-(5-(trifluoromethyl)-1,3,4-thiadiazol-2-yl)imidazo[1,5-a]pyridin-8-yl)-N,N-dimethylpiperidine-4-carboxamide] | – | – | – | – |
| 132 | 11 | [2H]C([2H])([2H])OCC1CN(c2cc(S(=O)(=O)NC3(C)COC3)cn3c(-c4nnc(C(F)F)s4)ncc23)CCN1 (centres unmarked) [Example 392, 3-(5-(difluoromethyl)-1,3,4-thiadiazol-2-yl)-8-(3-((methoxy-d3)methyl)piperazin-1-yl)-N-(3-methyloxetan-3-yl)imidazo[1,5-a]pyridine-6-sulfonamide] | – | – | – | – |
| 305 | 6.31 | COCC1CN(c2cc(S(=O)(=O)NC3(CF)COC3)cn3c(-c4nnc(C(F)F)s4)ncc23)CCN1 (centres unmarked) [Example 356, 3-(5-(difluoromethyl)-1,3,4-thiadiazol-2-yl)-N-(3-(fluoromethyl)oxetan-3-yl)-8-(3-(methoxymethyl)piperazin-1-yl)imidazo[1,5-a]pyridine-6-sulfonamide] | – | – | – | – |
| 282 | 4.64 | CC1(NS(=O)(=O)c2cc(N3CCOCC3)c3cnc(-c4nnc(C(F)F)s4)n3c2)CC1 [Example 347, 3-(5-(difluoromethyl)-1,3,4-thiadiazol-2-yl)-N-(1-methylcyclopropyl)-8-morpholinoimidazo[1,5-a]pyridine-6-sulfonamide] | – | – | – | – |
| 329 | 15.4 | C[C@@H]1CN(c2cc(S(=O)(=O)NC3(C#N)CC3)cn3c(-c4nnc(C(F)(F)F)s4)ncc23)CCN1C(=O)C1CCO1 (stereo partly drawn) [Example 302, N-(1-cyanocyclopropyl)-8-((3R)-3-methyl-4-(oxetane-2-carbonyl)piperazin-1-yl)-3-(5-(trifluoromethyl)-1,3,4-thiadiazol-2-yl)imidazo[1,5-a]pyridine-6-sulfonamide] | – | – | – | – |
| 374 | 5.01 | CC1(NS(=O)(=O)c2cc(N3CCN(C(=O)C4(CO)CC4)CC3)c3cnc(-c4nnc(C(F)(F)F)s4)n3c2)CC1 [Example 345, 8-(4-(1-(hydroxymethyl)cyclopropane-1-carbonyl)piperazin-1-yl)-N-(1-methylcyclopropyl)-3-(5-(trifluoromethyl)-1,3,4-thiadiazol-2-yl)imidazo[1,5-a]pyridine-6-sulfonamide] | – | – | – | – |
| 60 | 1.41 | CC1(NS(=O)(=O)c2cc(C3=CCN(S(C)(=O)=O)CC3)c3cnc(-c4nnc(C(F)(F)F)s4)n3c2)CC1 [Example 377, N-(1-methylcyclopropyl)-8-(1-(methylsulfonyl)-1,2,3,6-tetrahydropyridin-4-yl)-3-(5-(trifluoromethyl)-1,3,4-thiadiazol-2-yl)imidazo[1,5-a]pyridine-6-sulfonamide] | – | – | – | – |

| SMILES | IC50 (HCC1806; [1]) [nM] | IC50 (PARG; PARG, TFMU-ADPr substrate) [nM] | IC50 (HCC1806; HCC1806, 7 days, CellTiter-Glo, read-out: IC50 (nM) in cell viability assay) [nM] | IC50 (PARG; [2]) [nM] | IC50 (HCC1806; Homo sapiens, HCC1806, 168 h, read-out: IC50 (nM) in cell viability assay, HCC1806, 7 days, CellTiter-Glo) [nM] | IC50 (HCC1806; read-out: IC50 (nM) in cell viability assay, HCC1806, 7 days, CellTiter-Glo) [nM] |
| --- | --- | --- | --- | --- | --- | --- |
| CN(C)C(=O)N1CC2(CC=C(c3nc(-c4nnc(C(F)F)s4)n4cc(S(=O)(=O)NC5(C#N)CC5)ccc34)C2)C1 [Example 25, 6-(6-(N-(1-cyanocyclopropyl)sulfamoyl)-3-(5-(difluoromethyl)-1,3,4-thiadiazol-2-yl)imidazo[1,5-a]pyridin-1-yl)-N,N-dimethyl-2-azaspiro[3.4]oct-6-ene-2-carboxamide] | < 500 | 4.84 | 490 | < 100 | – | – |
| N#CC1(NS(=O)(=O)c2ccc3c(C4=CCC5(CNC5)C4)nc(-c4nnc(C(F)F)s4)n3c2)CC1 [Example 22, N-(1-cyanocyclopropyl)-3-(5-(difluoromethyl)-1,3,4-thiadiazol-2-yl)-1-(2-azaspiro[3.4]oct-6-en-6-yl)imidazo[1,5-a]pyridine-6-sulfonamide] | – | 5.17 | – | < 100 | > 30000 | 30000 |

Reference: patent US20260258035A1, “FIVE-MEMBERED AND SIX-MEMBERED NITROGEN-CONTAINING COMPOUND, AND INTERMEDIATE, PREPARATION METHOD AND USE THEREOF” (HANGZHOU SYNRX THERAPEUTICS BIOMEDICAL TECHNOLOGY CO., LTD., priority 2022, published 2026)
